According to ChEMBL document CHEMBL1201862, “PubChem BioAssay data set” (2004):
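Results reflect a 48-hour exposure of cells in 96-well plates to compound at five concentrations. Abbreviation: GI50, concentration required for 50% inhibition of growth.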 The source made the active and inactive calls. No stated cut-off is given here; in the data, active = GI50 up to about 1.1 µM and inactive = higher.

How the values were obtained:
Experiment in all cases: inhibition of tumour cell growth, NCI panel, 48 h
SNB-78 = system: SNB-78
OVCAR-4 = system: OVCAR-4
SK-MEL-2 = system: SK-MEL-2
A549 = system: A549
OVCAR-5 = system: OVCAR-5
OVCAR-8 = system: OVCAR-8
SN12C = system: SN12C
DLD-1 = system: DLD-1
ACHN = system: ACHN
SK-MEL-28 = system: SK-MEL-28
LOX IMVI = system: LOX IMVI
SF-539 = system: SF-539
CAKI-1 = system: CAKI-1
NCI-H522 = system: NCI-H522
U-251 = system: U-251
IGROV-1 = system: IGROV-1
SK-OV-3 = system: SK-OV-3
SNB-19 = system: SNB-19
RXF 393 = system: RXF 393
HOP-18 = system: HOP-18
UO-31 = system: UO-31
DMS-114 = system: DMS-114
SK-MEL-5 = system: SK-MEL-5
DMS-273 = system: DMS-273
NCI-H23 = system: NCI-H23
UACC-257 = system: UACC-257
UACC-62 = system: UACC-62
SW-620 = system: SW-620
EKVX = system: EKVX
XF498 = system: XF498
COLO 205 = system: COLO 205
LXFL 529 = system: LXFL 529
HL-60 = system: HL-60
Malme-3M = system: Malme-3M
A498 = system: A498
K562 = system: K562
MOLT-4 = system: MOLT-4
HT-29 = system: HT-29
SF-295 = system: SF-295
CCRF-CEM = system: CCRF-CEM
HCT-15 = system: HCT-15
SNB-75 = system: SNB-75
NCI-H460 = system: NCI-H460
TK-10 = system: TK-10
SF-268 = system: SF-268
HCC 2998 = system: HCC 2998
RPMI-8226 = system: RPMI-8226
KM12 = system: KM12
786-0 = system: 786-0
M14 = system: M14

S=C1ON=C(c2ccccc2)/C1=C/Nc1ccccc1
GI50 (SNB-78): > 100 µM (inactive)
GI50 (OVCAR-4): 9.62 µM (inactive)
GI50 (SK-MEL-2): > 100 µM (inactive)
GI50 (A549): > 100 µM (inactive)
GI50 (OVCAR-5): > 100 µM (inactive)
GI50 (OVCAR-8): > 100 µM (inactive)
GI50 (SN12C): > 100 µM (inactive)
GI50 (DLD-1): 37.2 µM (inactive)
GI50 (ACHN): 47.1 µM (inactive)
GI50 (SK-MEL-28): > 100 µM (inactive)
GI50 (LOX IMVI): > 100 µM (inactive)
GI50 (SF-539): 97.7 µM (inactive)
GI50 (CAKI-1): > 100 µM (inactive)
GI50 (NCI-H522): > 100 µM (inactive)
GI50 (U-251): > 100 µM (inactive)
GI50 (IGROV-1): > 100 µM (inactive)
GI50 (SK-OV-3): > 100 µM (inactive)
GI50 (SNB-19): > 100 µM (inactive)
GI50 (RXF 393): 94.8 µM (inactive)
GI50 (HOP-18): < 0.01 µM (active)
GI50 (UO-31): > 100 µM (inactive)
GI50 (DMS-114): > 100 µM (inactive)
GI50 (SK-MEL-5): > 100 µM (inactive)
GI50 (DMS-273): > 100 µM (inactive)
GI50 (NCI-H23): > 100 µM (inactive)
GI50 (UACC-257): > 100 µM (inactive)
GI50 (UACC-62): 3.24 µM (inactive)
GI50 (SW-620): > 100 µM (inactive)
GI50 (EKVX): > 100 µM (inactive)
GI50 (XF498): > 100 µM (inactive)
GI50 (COLO 205): > 100 µM (inactive)
GI50 (LXFL 529): > 100 µM (inactive)
GI50 (HL-60): > 100 µM (inactive)
GI50 (Malme-3M): 77.1 µM (inactive)
GI50 (A498): 5.69 µM (inactive)
GI50 (K562): 9.98 µM (inactive)
GI50 (MOLT-4): > 100 µM (inactive)
GI50 (HT-29): > 100 µM (inactive)
GI50 (SF-295): > 100 µM (inactive)
GI50 (CCRF-CEM): > 100 µM (inactive)
GI50 (HCT-15): 78.9 µM
GI50 (SNB-75): > 100 µM (inactive)
GI50 (NCI-H460): > 100 µM (inactive)
GI50 (TK-10): > 100 µM (inactive)
GI50 (SF-268): > 100 µM (inactive)
GI50 (HCC 2998): > 100 µM (inactive)
GI50 (RPMI-8226): > 100 µM (inactive)
GI50 (KM12): 23.2 µM (inactive)
GI50 (786-0): > 100 µM (inactive)
GI50 (M14): > 100 µM (inactive)
